Measurements taken from ChEMBL document CHEMBL2034889, “The design and synthesis of novel, potent and orally bioavailable N-aryl piperazine-1-carboxamide CCR2 antagonists with very high hERG selectivity” (Bioorg Med Chem Lett, 2012).

Legend:
[1] = target: T1, C-C chemokine receptor type 2 (Homo sapiens, UniProt P41597); test: Antagonist activity at human CCR2 receptor expressed in human THP-1 cells assessed as inhibition of MCP1-induced Ca2+ flux by FLIPR analysis; type: functional, cell-based
[2] = target: T1, C-C chemokine receptor type 2; test: Displacement of 125I-MCP1 from human CCR2 receptor expressed in human THP-1 cell membrane by SPA assay; type: cell membranes
[3] = target: Voltage-gated inwardly rectifying potassium channel KCNH2 (Homo sapiens, UniProt Q12809)
Chain of Voltage-gated inwardly rectifying potassium channel KCNH2 (Q12809 whole entry): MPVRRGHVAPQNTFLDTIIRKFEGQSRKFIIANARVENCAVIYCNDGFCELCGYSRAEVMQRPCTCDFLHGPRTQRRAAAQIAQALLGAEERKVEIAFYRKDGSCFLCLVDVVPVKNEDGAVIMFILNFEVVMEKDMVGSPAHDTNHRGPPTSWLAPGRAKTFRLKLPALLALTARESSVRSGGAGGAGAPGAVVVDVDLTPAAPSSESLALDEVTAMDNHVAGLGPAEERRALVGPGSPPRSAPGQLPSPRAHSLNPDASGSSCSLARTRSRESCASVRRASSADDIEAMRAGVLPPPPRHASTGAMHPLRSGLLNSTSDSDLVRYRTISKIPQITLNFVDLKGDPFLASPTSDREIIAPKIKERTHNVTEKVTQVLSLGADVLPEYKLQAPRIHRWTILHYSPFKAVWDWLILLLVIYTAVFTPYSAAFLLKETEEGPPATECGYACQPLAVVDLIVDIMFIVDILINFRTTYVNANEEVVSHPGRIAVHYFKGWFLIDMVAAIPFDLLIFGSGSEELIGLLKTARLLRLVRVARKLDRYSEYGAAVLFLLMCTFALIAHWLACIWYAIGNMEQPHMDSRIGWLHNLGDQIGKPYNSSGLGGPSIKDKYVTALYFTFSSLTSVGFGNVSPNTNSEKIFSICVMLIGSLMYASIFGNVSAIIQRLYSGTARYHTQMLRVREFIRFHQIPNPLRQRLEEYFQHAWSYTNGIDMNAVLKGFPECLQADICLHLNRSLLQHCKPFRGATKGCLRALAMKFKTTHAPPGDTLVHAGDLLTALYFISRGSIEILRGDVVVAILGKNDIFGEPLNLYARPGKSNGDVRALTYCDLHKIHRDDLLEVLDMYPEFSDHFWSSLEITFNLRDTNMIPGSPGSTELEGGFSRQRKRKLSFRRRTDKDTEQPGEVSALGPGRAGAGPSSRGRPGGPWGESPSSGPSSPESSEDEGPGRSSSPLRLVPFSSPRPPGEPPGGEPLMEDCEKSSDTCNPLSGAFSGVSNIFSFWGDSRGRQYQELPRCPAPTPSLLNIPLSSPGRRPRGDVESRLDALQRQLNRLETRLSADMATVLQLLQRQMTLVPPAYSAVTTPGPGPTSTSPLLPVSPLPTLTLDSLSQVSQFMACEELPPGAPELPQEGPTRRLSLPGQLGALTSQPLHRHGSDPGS

T1 sequence (P41597 whole entry): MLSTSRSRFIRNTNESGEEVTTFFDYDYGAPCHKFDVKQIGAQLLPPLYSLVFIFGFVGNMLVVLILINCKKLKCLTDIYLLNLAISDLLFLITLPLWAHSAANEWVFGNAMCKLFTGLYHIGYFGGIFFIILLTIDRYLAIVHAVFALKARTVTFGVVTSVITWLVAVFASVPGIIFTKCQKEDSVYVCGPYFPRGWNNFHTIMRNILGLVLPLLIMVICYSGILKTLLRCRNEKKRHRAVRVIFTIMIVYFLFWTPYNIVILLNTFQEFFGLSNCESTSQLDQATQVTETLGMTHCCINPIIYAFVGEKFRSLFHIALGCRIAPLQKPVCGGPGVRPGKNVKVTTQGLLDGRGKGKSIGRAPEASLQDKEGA

Row | Structure (SMILES) | IC50 [1] | IC50 [2] | IC50 [3]
1 | CC(C)N1CCN[C@@H](CN2CCN(C(=O)Nc3ccc(Cl)c(Cl)c3)CC2)C1 | 32 nM | 26 nM | –
2 | N#Cc1cccc(NC(=O)N2CCN(C[C@@H]3CCCN(C4CC4)C3)CC2)c1 | 5870 nM | 1050 nM | –
3 | CCN1CCCC(CN2CCN(C(=O)Nc3ccc(Cl)c(Cl)c3)CC2)C1 (racemic) | 627 nM | 123 nM | 4300 nM
4 | CCN1CCOC(C(=O)N2CCN(C(=O)Nc3ccc(Cl)c(Cl)c3)CC2)C1 (racemic) | > 1000 nM | 2570 nM | 5000 nM
5 | O=C(Nc1ccc(F)c(Cl)c1)N1CCN(C[C@@H]2CCCN(C3CC3)C2)CC1 | 75 nM | 50 nM | 14000 nM
6 | N#Cc1ccc(NC(=O)N2CCN(C[C@@H]3CCCN(C4CC4)C3)CC2)cc1 | 4360 nM | 449 nM | –
7 | CCN1CCC[C@@H](CN2CCN(C(=O)Nc3ccc(Cl)c(Cl)c3)CC2)C1 | 174 nM | 37 nM | 2100 nM
8 | CS(=O)(=O)c1cccc(NC(=O)N2CCN(C[C@@H]3CCCN(C4CC4)C3)CC2)c1 | – | > 10000 nM | –
9 | O=C(Nc1ccc(C(F)(F)F)cc1)N1CCN(C[C@@H]2CCCN(C3CC3)C2)CC1 | 593 nM | 68 nM | –
10 | O=C(Nc1ccc(Br)cc1)N1CCN(C[C@@H]2CCCN(C3CC3)C2)CC1 | 162 nM | 58 nM | 7100 nM
11 | O=C(Nc1ccc(Cl)c(Cl)c1)N1CCN(C[C@@H]2CCCN(CCCc3ccccc3)C2)CC1 | 280 nM | 64 nM | 400 nM
12 | COc1ccc(NC(=O)N2CCN(C[C@@H]3CCCN(C4CC4)C3)CC2)cc1 | – | 1460 nM | –
13 | O=C(Nc1ccc(Cl)c(Cl)c1)N1CCN(C[C@@H]2CCCN(CC3CC3)C2)CC1 | 161 nM | 52 nM | –
14 | O=C(Nc1ccc(Cl)c(Cl)c1)N1CCN(C[C@@H]2CCCN(Cc3ccccc3)C2)CC1 | 244 nM | 99 nM | –
15 | Cc1ccc(NC(=O)N2CCN(C[C@@H]3CCCN(C4CC4)C3)CC2)cc1Cl | 184 nM | 27 nM | 7100 nM
16 | CCN1CCNC(CN2CCN(C(=O)Nc3ccc(Cl)c(Cl)c3)CC2)C1 (racemic) | – | 797 nM | 8900 nM
17 | O=C(Nc1ccc(Cl)c(Cl)c1)N1CCN(CC2CCCNC2)CC1 (racemic) | 950 nM | 780 nM | –
18 | CN1CCN(C)C(C(=O)N2CCN(C(=O)Nc3ccc(Cl)c(Cl)c3)CC2)C1 (racemic) | – | 5500 nM | 13000 nM
19 | CCN1CCN[C@@H](C(=O)N2CCN(C(=O)Nc3ccc(Cl)c(Cl)c3)CC2)C1 | 55 nM | 21 nM | –
